Values quoted from earlier work, collected in patent US10493089B2, “Solid composition comprising amorphous sofosbuvir” (priority 2014, dated 2019).

SMILES	relative humidity at which it deliquesces (amorphous form compared to crystalline forms)	behaviour under stress conditions (40° C., relative humidity 75%)
CC(C)OC(=O)[C@H](C)N[P@](=O)(OC[C@H]1O[C@@H](n2ccc(=O)[nH]c2=O)[C@](C)(F)[C@@H]1O)Oc1ccccc1 [Amorphous sofosbuvir]	above 50%	–
CC(C)OC(=O)[C@H](C)N[P@](=O)(OC[C@H]1O[C@@H](n2ccc(=O)[nH]c2=O)[C@](C)(F)[C@@H]1O)Oc1ccccc1 [sofosbuvir, (S)-isopropyl 2-(((S)-(((2R,3R,4R,5R)-5-(2,4-dioxo-3,4-dihydropyrimidin-1(2H)-yl)-4-fluoro-3-hydroxy-4-methyltetrahydrofuran-2-yl)methoxy)(phenoxy)phosphoryl)amino)propanoate]	–	deliquesces after a few hours
